Measurements: US20190218207A1, “3-(Pyridin-3-yl)-Acrylamide and N-(Pyridin-3-yl)-Acrylamide Derivatives and Their Use as PAK or NAMPT Modulators” (Karyopharm Therapeutics Inc., priority 2015, published 2019)
Like-named read-outs stand apart in the source and are kept apart here.

Columns and labels:
3T3 cells = assay: MTT cell proliferation assay, 3T3 cells; type: cell-based, mouse; conditions: 3T3 fibroblast cells, incubation approximately 64-72 hours
Experimental: (§1) The MTT cell proliferation assay was used to study the cytotoxic properties of the compounds. The assay was performed according to the method described by Roche Molecular Biochemicals, with minor modifications. The assay is based on the cleavage of the tetrazolium salt, MTT, in the presence of an electron-coupling reagent. The water-insoluble formazan salt produced must be solubilized in an additional step. Cells grown in a 96-well tissue culture plate were incubated with the MTT solution for approximately 4 hours. After this incubation period, a water-insoluble formazan dye formed. After solubilization, the formazan dye was quantitated using a scanning multi-well spectrophotometer (ELISA reader). […] The cells were seeded at 5,000-10,000 cells in each well of 96-well plate in 100 μL of fresh culture medium and were allowed to attach overnight. The stock solutions of the compounds were diluted in […] cell culture medium to obtain eight concentrations of each test compound, ranging from 1 nM to 30 μM. […] All optical densities were measured at 490 nm using a Vmax Kinetic Microplate Reader (Molecular Devices). In most cases, the assay was performed in duplicate and the results were presented as a mean percent inhibition to the negative control±SE. The following formula was used to calculate the percent of inhibition: Inhibition (%)=(1-(ODo/OD))×100.
(§2) The compounds were tested against MS751, Z138 and 3T3 cells. The MS751 cell line is derived from a metastasis to lymph node of human cervix from a patient diagnosed with squameous cell carcinoma of the cervix. The Z138 cell line is a mature B-cell acute lymphoblastic leukemia cell line derived from a patient with chronic lumphocytic leukemia. 3T3 cells are standard fibroblast cells; they were originally isolated from Swiss mouse embryo tissue.

Z138 cells = assay: MTT cell proliferation assay, Z138 cells; type: cell-based, human
Experimental: as §1, §2

MS751 cells = assay: MTT cell proliferation assay, MS751 cells; type: cell-based, human; conditions: Homo sapiens, incubation approximately 64-72 hours, read-out: MTT Assay IC50, MS 751
Experimental: as §1, §2

[1] = Homo sapiens, Z-138, incubation approximately 64-72 hours

Compound | IC50 (3T3 cells) | IC50 (Z138 cells; incubation approximately 64-72 hours, read-out: MTT Assay IC50, Z-138) | IC50 (3T3 cells; Mus musculus, NIH3T3) | IC50 (Z138 cells; [1]) | IC50 (MS751 cells)
2-(6-aminopyridin-3-yloxy)-N-((4-(3-(4-fluorophenyl)-4′-(4,4-difluoropiperidine-1-carbonyl)biphenyl-4-yl)furan-2-yl)methyl)acetamide [Compound A028] | > 10000 nM | < 1000 nM | – | – | –
Nc1ccc(/C=C/C(=O)NCc2ccc(-c3ccc(-c4ccc(C(=O)N5CCC(F)(F)CC5)cn4)cc3C(F)(F)F)o2)cn1 [Compound A001, (E)-3-(6-aminopyridin-3-yl)-N-((5-(4-(5-(4,4-difluoropiperidine-1-carbonyl)pyridin-2-yl)-2-(trifluoromethyl)phenyl)furan-2-yl)methyl)acrylamide] | – | – | 1000 to 5000 nM | < 1000 nM | < 1000 nM
O=C(/C=C/c1cccnc1)NCc1ccc(-c2ccc(-c3ccc(C(=O)N4CCC(F)(F)CC4)cn3)cc2C(F)(F)F)o1 [Compound A002, (E)-N-((5-(4-(5-(4,4-difluoropiperidine-1-carbonyl)pyridin-2-yl)-2-(trifluoromethyl)phenyl)furan-2-yl)methyl)-3-(pyridin-3-yl)acrylamide] | – | – | > 10000 nM | < 1000 nM | < 1000 nM
Nc1ccc(/C=C/C(=O)NCc2ccc(-c3ccc(-c4ccc(C(=O)N5CC(F)(F)C5)cn4)cc3C(F)(F)F)o2)cn1 [Compound A003, (E)-3-(6-aminopyridin-3-yl)-N-((5-(4-(5-(3,3-difluoroazetidine-1-carbonyl)pyridin-2-yl)-2-(trifluoromethyl)phenyl)furan-2-yl)methyl)acrylamide] | – | – | < 1000 nM | < 1000 nM | < 1000 nM
Nc1ccc(/C=C/C(=O)NCc2ccc(-c3ccc(-c4ccc(C(=O)N5CCC(F)(F)CC5)cn4)cc3C(F)(F)F)s2)cn1 [Compound A005, (E)-3-(6-aminopyridin-3-yl)-N-((5-(4-(5-(4,4-difluoropiperidine-1-carbonyl)pyridin-2-yl)-2-(trifluoromethyl)phenyl)thiophen-2-yl)methyl)acrylamide] | – | – | 1000 to 5000 nM | < 1000 nM | < 1000 nM
Nc1ccc(/C=C/C(=O)NCc2ccc(-c3ccc(-c4ccc(C(=O)N5CCC(F)(F)CC5)cn4)cc3Cl)o2)cn1 [Compound A006, (E)-3-(6-aminopyridin-3-yl)-N-((5-(2-chloro-4-(5-(4,4-difluoropiperidine-1-carbonyl)pyridin-2-yl)phenyl)furan-2-yl)methyl)acrylamide] | – | – | 1000 to 5000 nM | < 1000 nM | < 1000 nM
Nc1ccc(/C=C/C(=O)NCc2ccc(-c3ccc(-c4ccc(C(=O)N5CCC(F)(F)CC5)cc4F)cc3-c3ccc(F)cc3)o2)cn1 [Compound A007, (E)-3-(6-aminopyridin-3-yl)-N-((5-(4-(4,4-difluoropiperidine-1-carbonyl)-2,4″-difluoro-[1,1′:3′,1″-terphenyl]-4′-yl)furan-2-yl)methyl)acrylamide] | – | – | 5000 to 10000 nM | < 1000 nM | < 1000 nM
Nc1ccc(/C=C/C(=O)NCc2ccc(-c3ccc(-c4ccc(C(=O)N5CCC(F)(F)CC5)cc4)cc3-c3ccc(F)cc3)o2)cn1 [Compound A008, (E)-3-(6-aminopyridin-3-yl)-N-((5-(4-(4,4-difluoropiperidine-1-carbonyl)-4″-fluoro-[1,1′:3′,1″-terphenyl]-4′-yl)furan-2-yl)methyl)acrylamide] | – | – | 5000 to 10000 nM | < 1000 nM | < 1000 nM
Nc1ccc(/C=C/C(=O)NCc2ccc(-c3ccc(-c4ccc(C(=O)N5CCC(F)(F)CC5)cc4)cc3-c3cccc(Cl)c3)o2)cn1 [Compound A009, (E)-3-(6-aminopyridin-3-yl)-N-((5-(3″-chloro-4-(4,4-difluoropiperidine-1-carbonyl)-[1,1′:3′,1″-terphenyl]-4′-yl)furan-2-yl)methyl)acrylamide] | – | – | 1000 to 5000 nM | < 1000 nM | < 1000 nM
Nc1ccc(/C=C/C(=O)NCc2nnc(-c3ccc(-c4ccc(C(=O)N5CCC(F)(F)CC5)cc4)cc3-c3ccc(F)cc3)o2)cn1 [Compound A010, (E)-3-(6-aminopyridin-3-yl)-N-((5-(4-(4,4-difluoropiperidine-1-carbonyl)-4″-fluoro-[1,1′:3′,1″-terphenyl]-4′-yl)-1,3,4-oxadiazol-2-yl)methyl)acrylamide] | – | – | > 10000 nM | < 1000 nM | < 1000 nM
Nc1ccc(/C=C/C(=O)NCc2ccc(-c3ccc(-c4ccc(C(=O)N5CCC(F)(F)CC5)cc4)cc3-c3ccc(F)cc3)[nH]2)cn1 [Compound A011, (E)-3-(6-aminopyridin-3-yl)-N-((5-(4-(4,4-difluoropiperidine-1-carbonyl)-4″-fluoro-[1,1′:3′,1″-terphenyl]-4′-yl)-1H-pyrrol-2-yl)methyl)acrylamide] | – | – | > 10000 nM | < 1000 nM | 1000 to 5000 nM
Cc1c(CNC(=O)/C=C/c2ccc(N)nc2)sc(-c2ccc(-c3ccc(C(=O)N4CC(F)C4)cc3)cc2-c2ccc(F)cc2)c1C [Compound A013, (E)-3-(6-aminopyridin-3-yl)-N-((5-(4″-fluoro-4-(3-fluoroazetidine-1-carbonyl)-[1,1′:3′,1″-terphenyl]-4′-yl)-3,4-dimethylthiophen-2-yl)methyl)acrylamide] | – | – | > 10000 nM | < 1000 nM | 1000 to 5000 nM
Cc1cc(-c2ccc(-c3ccc(C(=O)N4CC(F)C4)cc3)cc2C(F)(F)F)sc1CNC(=O)/C=C/c1ccc(N)nc1 [Compound A014, (E)-3-(6-aminopyridin-3-yl)-N-((5-(4′-(3-fluoroazetidine-1-carbonyl)-3-(trifluoromethyl)-[1,1′-biphenyl]-4-yl)-3-methylthiophen-2-yl)methyl)acrylamide] | – | – | 5000 to 10000 nM | < 1000 nM | < 1000 nM
Nc1ccc(/C=C/C(=O)NCc2ccc(-c3ccc(-c4ccc(C(=O)N5CC(F)(F)C5)cc4)cc3C(F)(F)F)o2)cn1 [Compound A015, (E)-3-(6-aminopyridin-3-yl)-N-((5-(4′-(3,3-difluoroazetidine-1-carbonyl)-3-(trifluoromethyl)-[1,1′-biphenyl]-4-yl)furan-2-yl)methyl)acrylamide] | – | – | > 10000 nM | < 1000 nM | < 1000 nM
Cc1c(CNC(=O)/C=C/c2ccc(N)nc2)sc(-c2ccc(-c3ccc(C(=O)N4CC(F)C4)cc3)cc2C(F)(F)F)c1C [Compound A016, (E)-3-(6-aminopyridin-3-yl)-N-((5-(4′-(3-fluoroazetidine-1-carbonyl)-3-(trifluoromethyl)-[1,1′-biphenyl]-4-yl)-3,4-dimethylthiophen-2-yl)methyl)acrylamide] | – | – | > 10000 nM | > 10000 nM | > 10000 nM
Cc1c(CNC(=O)/C=C/c2ccc(N)nc2)sc(-c2ccc(C3CC3C(=O)N3CC(F)C3)cc2C(F)(F)F)c1C (stereo not shown) [Compound A017, (E)-3-(6-aminopyridin-3-yl)-N-((5-(4-(2-(3-fluoroazetidine-1-carbonyl)cyclopropyl)-2-(trifluoromethyl)phenyl)-3,4-dimethylthiophen-2-yl)methyl)acrylamide] | – | – | > 10000 nM | < 1000 nM | 1000 to 5000 nM
Nc1ccc(/C=C/C(=O)NCc2nnc(-c3ccc(-c4ccc(C(=O)N5CC(F)(F)C5)cc4)cc3C(F)(F)F)o2)cn1 [Compound A018, (E)-3-(6-aminopyridin-3-yl)-N-((5-(4′-(3,3-difluoroazetidine-1-carbonyl)-3-(trifluoromethyl)-[1,1′-biphenyl]-4-yl)-1,3,4-oxadiazol-2-yl)methyl)acrylamide] | – | – | > 10000 nM | < 1000 nM | < 1000 nM
Nc1ccc(/C=C/C(=O)NCc2cnc(-c3ccc(-c4ccc(C(=O)N5CC(F)(F)C5)cc4)cc3C(F)(F)F)o2)cn1 [Compound A019, (E)-3-(6-aminopyridin-3-yl)-N-((2-(4′-(3,3-difluoroazetidine-1-carbonyl)-3-(trifluoromethyl)-[1,1′-biphenyl]-4-yl)oxazol-5-yl)methyl)acrylamide] | – | – | 1000 to 5000 nM | < 1000 nM | < 1000 nM
Nc1ccc(/C=C/C(=O)NCc2cnc(-c3ccc(-c4ccc(C(=O)N5CC(F)C5)cc4F)cc3C(F)(F)F)o2)cn1 [Compound A020, (E)-3-(6-aminopyridin-3-yl)-N-((2-(2′-fluoro-4′-(3-fluoroazetidine-1-carbonyl)-3-(trifluoromethyl)-[1,1′-biphenyl]-4-yl)oxazol-5-yl)methyl)acrylamide] | – | – | 1000 to 5000 nM | < 1000 nM | < 1000 nM
Nc1ccc(/C=C/C(=O)NCc2ccc(-c3cc4c(C(=O)N5CCC(F)(F)CC5)c[nH]c4cc3C(F)(F)F)o2)cn1 [Compound A029, (E)-3-(6-aminopyridin-3-yl)-N-((5-(3-(4,4-difluoropiperidine-1-carbonyl)-6-(trifluoromethyl)-1H-indol-5-yl)furan-2-yl)methyl)acrylamide] | – | – | > 10000 nM | < 1000 nM | –
